Columns and labels:
Assay type in all cases: cell-based
[1] = target: T1, human recombinant prostanoid EP2 receptor (Homo sapiens, UniProt P43116); test: FLIPR Ca2+ signaling, PG antagonist activity, EP2; details: antagonism of standard agonist PGE2, HEK-293 EBNA stable cells with chimeric Gqs
T1 construct: expressed in transfected cells; co-transfected with chimeric Gqs-HA
Procedure: (§1) The above compounds were tested for PG antagonist activity as follows using human recombinant prostanoid receptor (DP1, EP1-4, FP, IP and TP) stable cell lines:
(§2) In order to measure the response of Gs and Gi coupled prostanoid receptors as a Ca^2+ signal, chimeric G protein cDNAs were used. Stable cell lines over-expressing human prostanoid DP1, EP1-4, FP, IP, and TP receptors were established as follows:
(§3) Briefly, human prostanoid DP1, EP2, and EP4 receptor cDNAs were co-transfected with chimeric Gqs cDNA containing a haemagglutanin (HA) epitope; human prostanoid EP3 receptors were co-transfected with chimeric Gqi-HA; human EP1, FP, IP, and TP receptor cDNAs were expressed with no exogenous G-proteins. Gqs and Gqi chimeric cDNAs (Molecular Devices, Sunnyvale, Calif., U.S.A.), as well as cDNAs of prostanoid receptors, were cloned into a pCEP4 vector with a hygromycin B selection marker. Transfection into HEK-293 EBNA (Epstein-Barr virus nuclear antigen) cells was achieved by the FuGENE 6 transfection Reagent (Roche Applied Science, Indianapolis, Ind., USA). Stable transfectants were selected according to hygromycin resistance. Because Gqs and Gqi contained an HA epitope, G-protein expression was detected by Western blotting analysis using anti-mouse HA monoclonal antibody and horseradish peroxidase (HRP)-conjugated secondary antibody, while functional expression of prostanoid receptors was detected by FLIPR screening (Matias et al., 2004). These stable cell lines were validated using previously published antagonists at 10 μM against serial dilutions of standard agonists by FLIPR functional assays for Ca^2− Signaling (as described below).
(§4) Ca^2+ signaling studies were performed using a FLIPR TETRA system (Molecular Devices, Sunnyvale, Calif., USA) in the 384-format. This is a high-throughput instrument for cell-based assays to monitor Ca^2+ signaling associated with GPCRs and ion channels. Cells were seeded at a density of 5×10^4 cells/well in BioCoat poly-D-lysine coated, black wall, clear bottom 384-well plates (BD Biosciences, Franklin lakes, N.J., USA) and allowed to attach overnight in an incubator at 37° C. The cells were then washed twice with HBSS-HEPES buffer (Hanks' balanced salt solution without bicarbonate and phenol red, 20 mM HEPES, pH 7.4) using an ELx405 Select CW Microplate Washer (BioTek, Winooski, Vt., USA). After 60 min of dye-loading in the dark using the Ca^2+-sensitive dye Fluo-4AM (Invitrogen, Carlsbad, Calif., USA), at a final concentration of 2×10^−6M, the plates were washed 4 times with HBSS-HEPES buffer to remove excess dye and leaving 50 μl of buffer in each well. The plates were then placed in the FLIPR TETRA instrument and allowed to equilibrate at 37° C. AGN-211377 was added in a 25 μl volume to each well to give final concentrations of 0.1 μM, 0.3 μM, 1 μM, 3 μM, 10 μM, and 30 μM; or 0.067 μM, 0.1 μM, 0.2 μM, 0.3 μM, 0.67 μM, and 1 μM for cells over-expressing TP receptors. After 4.5 minutes, a 7-point serial dilution of the standard agonist for the corresponding receptor, in a 25 μl volume was injected at the final concentrations from 10^−11M to 10^−5M in 10-fold serial dilution increments for cells expressing human recombinant DP1, EP1, EP2, EP3, EP4, FP, and IP receptors. The dose range for the standard agonist for human recombinant TP receptors was from 10^−12M to 10^−6M. HBSS-HEPES buffer was used as the negative control for the standard agonists. Cells were excited with LED (light emitting diode) excitation at 470-495 nm and emission was measured through an emission filter at 515-575 nm. Assay plates were read for 3.5 minutes using the FLIPR^TETRA. The peak increase in fluorescence intensity was recorded for each well. On each plate, negative controls, dose response of positive controls, and co-treatments of antagonist-agonist for each dose were in triplicates. Standard agonists were as follows: DP=BW 245C, EP1-EP4=PGE2, FP=17-phenyl-PGF2α, IP=Cicaprost, and TP=U-46619. […]

[2] = target: T2, human recombinant prostanoid EP3 receptor (Homo sapiens, UniProt P43115); test: FLIPR Ca2+ signaling, PG antagonist activity, EP3; details: antagonism of standard agonist PGE2, HEK-293 EBNA stable cells with chimeric Gqi
T2 construct: expressed in transfected cells; co-transfected with chimeric Gqi-HA
T2 sequence (P43115 1-390): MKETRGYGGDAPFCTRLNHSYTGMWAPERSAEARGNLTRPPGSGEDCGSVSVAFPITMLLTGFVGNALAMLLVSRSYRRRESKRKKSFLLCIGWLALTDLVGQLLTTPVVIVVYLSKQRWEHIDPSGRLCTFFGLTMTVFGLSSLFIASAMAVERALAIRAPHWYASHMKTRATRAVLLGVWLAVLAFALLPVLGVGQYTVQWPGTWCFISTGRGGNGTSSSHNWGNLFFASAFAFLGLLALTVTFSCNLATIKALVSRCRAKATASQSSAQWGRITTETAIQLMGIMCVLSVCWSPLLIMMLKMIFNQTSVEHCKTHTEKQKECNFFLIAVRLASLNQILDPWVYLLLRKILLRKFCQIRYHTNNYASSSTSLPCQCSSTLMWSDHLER
Procedure: as §1, §2, §3, §4

[3] = target: T3, human recombinant prostanoid EP1 receptor (Homo sapiens, UniProt P34995); test: FLIPR Ca2+ signaling, PG antagonist activity, EP1; details: antagonism of standard agonist PGE2, HEK-293 EBNA stable cells
T3 construct: expressed in transfected cells
T3 sequence (P34995 1-402): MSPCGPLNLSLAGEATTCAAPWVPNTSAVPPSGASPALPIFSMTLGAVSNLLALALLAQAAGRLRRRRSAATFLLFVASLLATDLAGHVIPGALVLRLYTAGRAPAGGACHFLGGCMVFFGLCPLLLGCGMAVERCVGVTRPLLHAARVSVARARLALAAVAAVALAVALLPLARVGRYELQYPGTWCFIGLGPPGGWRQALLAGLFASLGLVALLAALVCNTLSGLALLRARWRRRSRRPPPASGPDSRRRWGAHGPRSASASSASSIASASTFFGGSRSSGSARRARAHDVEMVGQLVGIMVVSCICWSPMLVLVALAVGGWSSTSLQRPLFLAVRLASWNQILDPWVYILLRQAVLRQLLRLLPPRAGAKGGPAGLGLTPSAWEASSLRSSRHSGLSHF
Procedure: as §1, §2, §3, §4

T1 sequence (P43116 whole entry): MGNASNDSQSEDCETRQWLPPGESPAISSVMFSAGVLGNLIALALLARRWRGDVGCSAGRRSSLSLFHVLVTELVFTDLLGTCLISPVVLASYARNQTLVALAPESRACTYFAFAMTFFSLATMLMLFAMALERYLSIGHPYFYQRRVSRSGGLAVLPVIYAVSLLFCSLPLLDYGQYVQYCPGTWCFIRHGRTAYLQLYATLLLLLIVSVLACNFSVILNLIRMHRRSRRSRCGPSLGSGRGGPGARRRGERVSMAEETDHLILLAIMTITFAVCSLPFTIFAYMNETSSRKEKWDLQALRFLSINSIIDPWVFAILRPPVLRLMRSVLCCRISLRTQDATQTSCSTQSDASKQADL

| SMILES | Kb [1] [µM] | Kb [2] [µM] | Kb [3] [nM] |
| --- | --- | --- | --- |
| CCC(CC)COc1ccc(Br)cc1Cn1ncc(CC(=O)O)c1C [Example 1, {1-[5-bromo-2-(2-ethyl-butoxy)-benzyl]-5-methyl-1H-pyrazol-4-yl}-acetic acid] | ≥ 10 | ≥ 10 | 170 |
| CCC(CC)COc1ccc(Br)cc1Cn1ncc(C(=O)O)c1C [Example 2, 1-[5-bromo-2-(2-ethyl-butoxy)-benzyl]-5-methyl-1H-pyrazole-4-carboxylic acid] | ≥ 10 | 6.1 | 33 |
| CCC(CC)COc1ccc(Br)cc1Cn1cc(C(=O)O)c(C)n1 [Example 3] | ≥ 10 | ≥ 10 | 30 |
| CCC(CC)COc1ccc(Cl)cc1Cn1cc(C(=O)O)cn1 [Example 4, 1-[5-chloro-2-(2-ethyl-butoxy)-benzyl]-1H-pyrazole-4-carboxylic acid] | ≥ 10 | ≥ 10 | 140 |
| CCC(CC)COc1ccc(Cl)cc1Cn1nc(C)c(C(=O)O)c1C [Example 5, 1-[5-chloro-2-(2-ethyl-butoxy)-benzyl]-3,5-dimethyl-1H-pyrazole-4-carboxylic acid] | ≥ 10 | ≥ 10 | 20 |
| CCCc1nn(Cc2cc(Cl)ccc2OCC(CC)CC)cc1C(=O)O [Example 6, 1-[5-chloro-2-(2-ethyl-butoxy)-benzyl]-3-propyl-1H-pyrazole-4-carboxylic acid] | 8.6 | ≥ 10 | 1500 |
| CCCc1c(C(=O)O)cnn1Cc1cc(Cl)ccc1OCC(CC)CC [Example 7, 1-[5-chloro-2-(2-ethyl-butoxy)-benzyl]-5-propyl-1H-pyrazole-4-carboxylic acid] | ≥ 10 | ≥ 10 | 640 |
| CCC(CC)COc1ccc(C(F)(F)F)cc1Cn1ncc(C(=O)O)c1C [Example 8, 1-[2-(2-ethyl-butoxy)-5-trifluoromethyl-benzyl]-5-methyl-1H-pyrazole-4-carboxylic acid] | ≥ 10 | ≥ 10 | 40 |
| CCC(CC)COc1ccc(C(F)(F)F)cc1Cn1cc(C(=O)O)c(C)n1 [Example 9, 1-[2-(2-ethyl-butoxy)-5-trifluoromethyl-benzyl]-3-methyl-1H-pyrazole-4-carboxylic acid] | ≥ 10 | ≥ 10 | 440 |
| CCC(CC)COc1ccc(Cl)cc1Cn1ncc(C(=O)O)c1C [Example 10, 1-[5-chloro-2-(2-ethyl-butoxy)-benzyl]-5-methyl-1H-pyrazole-4-carboxylic acid] | ≥ 10 | 3.9 | 50 |
| Cc1c(C(=O)O)cnn1Cc1cc(Cl)ccc1OCC(C)C [Example 11, 1-(5-chloro-2-isobutoxy-benzyl)-5-methyl-1-pyrazole-4-carboxylic acid] | ≥ 10 | ≥ 10 | 30 |
| Cc1c(C(=O)O)cnn1Cc1cc(Cl)ccc1OCC1CCCC1 [Example 12, 1-(5-chloro-2-cyclopentylmethoxy-benzyl)-5-methyl-1H-pyrazole-4-carboxylic acid] | ≥ 10 | ≥ 10 | 30 |
| Cc1c(C(=O)O)cnn1Cc1cc(Br)ccc1OCC(C)C [Example 13, 1-(5-bromo-2-isobutoxy-benzyl)-5-methyl-1H-pyrazole-4-carboxylic acid] | ≥ 10 | ≥ 10 | 30 |
| Cc1c(C(=O)O)cnn1Cc1cc(Br)ccc1OCC(C)(C)C [Example 14, 1-[5-bromo-2-(2,2-dimethyl-propoxy)-benzyl]-5-methyl-1H-pyrazole-4-carboxylic acid] | ≥ 10 | ≥ 10 | 30 |
| CCC(CC)COc1ccc(OC(F)(F)F)cc1Cn1ncc(C(=O)O)c1C [Example 15, 1-[2-(2-ethyl-butoxy)-5-trifluoromethoxy-benzyl]-5-methyl-1H-pyrazole-4-carboxylic acid] | ≥ 10 | ≥ 10 | 45 |
| CCC(CC)COc1ccc(Br)cc1Cn1ncc(C(=O)O)c1N [Example 16, 5-amino-1-[5-bromo-2-(2-ethyl-butoxy)-benzyl]-1H-pyrazole-4-carboxylic acid] | ≥ 10 | ≥ 10 | 60 |

— US9035071B2, “Compounds acting at multiple prostaglandin receptors giving a general anti-inflammatory response” (Allergan, Inc., priority 2011, dated 2015)
